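These data come from cells grown in 96-well plates and exposed to compound for 48 hours at five concentrations. Abbreviation: GI50, concentration required for 50% inhibition of growth.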 Activity calls are given as the source filed them. Rule as the data show it: active = GI50 up to about 1.1 µM and inactive = higher.
Columns and labels:
Assay in all cases: NCI anticancer screen, dose series, 48 h
[1] = test system: T47D
[2] = test system: BT-549
[3] = test system: MOLT-4
[4] = test system: SF-295
[5] = test system: OVCAR-8
[6] = test system: SR
[7] = test system: NCI-H23
[8] = test system: A549
[9] = test system: SK-MEL-5
[10] = test system: Hs-578T
[11] = test system: K562
[12] = test system: SN12C
[13] = test system: UACC-62
[14] = test system: SK-MEL-28
[15] = test system: NCI-H460
[16] = test system: NCI/ADR-RES
[17] = test system: HOP-62
[18] = test system: CCRF-CEM
[19] = test system: HL-60
[20] = test system: LOX IMVI

SMILES | GI50 [1] | GI50 [2] | GI50 [3] | GI50 [4] | GI50 [5] | GI50 [6] | GI50 [7] | GI50 [8] | GI50 [9] | GI50 [10] | GI50 [11] | GI50 [12] | GI50 [13] | GI50 [14] | GI50 [15] | GI50 [16] | GI50 [17] | GI50 [18] | GI50 [19] | GI50 [20]
CC1=C(Nc2c(C)cc(O)cc2O)C(=O)C=c2oc3c(c21)C(C)=C(Nc1c(C)cc(O)cc1O)C(=O)C=3 | 52.4 µM (inactive) | 32.9 µM (inactive) | 27.4 µM (inactive) | 24.4 µM (inactive) | 38 µM (inactive) | 0.0313 µM (active) | 20.3 µM (inactive) | 38.5 µM (inactive) | 17.2 µM (inactive) | 32 µM (inactive) | 34 µM (inactive) | 30.4 µM (inactive) | 37.2 µM (inactive) | 52.5 µM (inactive) | 30.3 µM (inactive) | > 100 µM (inactive) | 32.8 µM (inactive) | – | – | –
C1=N\CCNCCNCC/N=C\c2ccc(cc2)OCc2cccc(n2)COc2ccc/1cc2 | 53.3 µM (inactive) | > 100 µM (inactive) | 29 µM (inactive) | > 100 µM (inactive) | > 100 µM (inactive) | 50.5 µM (inactive) | 86.3 µM (inactive) | > 100 µM (inactive) | 51.4 µM (inactive) | 99.3 µM (inactive) | 34.1 µM (inactive) | > 100 µM (inactive) | > 100 µM (inactive) | > 100 µM (inactive) | 73.6 µM (inactive) | 95.1 µM (inactive) | > 100 µM (inactive) | 27.6 µM (inactive) | 67.9 µM (inactive) | –
S=c1nc(N/N=C/c2cccs2)c2cn[nH]c2[nH]1 | 23.7 µM (inactive) | > 100 µM (inactive) | 14 µM (inactive) | 12.4 µM (inactive) | 25.6 µM (inactive) | 11.8 µM (inactive) | 21.2 µM (inactive) | 0.238 µM (active) | 31.1 µM (inactive) | > 100 µM (inactive) | 16.3 µM (inactive) | 32.3 µM (inactive) | 25.4 µM (inactive) | 46.7 µM (inactive) | 0.134 µM (active) | 27.2 µM (inactive) | 23.2 µM (inactive) | – | 76.4 µM (inactive) | 25.5 µM (inactive)
COC(=O)/C(=N/NC(N)=O)C(C(=O)C(=O)Nc1ccc(C)cc1)c1nc2ccc(C(=O)c3ccccc3)cc2nc1O (stereo unspecified) | 41.9 µM (inactive) | > 100 µM (inactive) | 50.4 µM (inactive) | > 100 µM (inactive) | 75.2 µM (inactive) | 1.53 µM (inactive) | > 100 µM (inactive) | > 100 µM (inactive) | > 100 µM (inactive) | 67 µM (inactive) | – | > 100 µM (inactive) | 51.4 µM (inactive) | > 100 µM (inactive) | > 100 µM (inactive) | 39.3 µM (inactive) | > 100 µM (inactive) | 49 µM (inactive) | 67.9 µM (inactive) | > 100 µM (inactive)
CCOC(=O)C(C(=O)OCC)=C1SC(=N\c2ccccc2)/C(=N/c2ccccc2)N1c1ccccc1 | > 100 µM (inactive) | > 100 µM (inactive) | 13.3 µM (inactive) | 27 µM (inactive) | > 100 µM (inactive) | > 100 µM (inactive) | > 100 µM (inactive) | > 100 µM (inactive) | 52.1 µM (inactive) | 90.8 µM (inactive) | 4.48 µM (inactive) | > 100 µM (inactive) | 53.6 µM (inactive) | > 100 µM (inactive) | > 100 µM (inactive) | > 100 µM (inactive) | 34.2 µM (inactive) | 18.4 µM (inactive) | > 100 µM (inactive) | –
CC(=N\c1ccncc1)/C(C)=N/c1ccncc1 | 26.2 µM (inactive) | 23.3 µM (inactive) | 24.4 µM (inactive) | 73.5 µM (inactive) | 35.2 µM (inactive) | 27.1 µM (inactive) | 16.5 µM (inactive) | > 100 µM (inactive) | 19.5 µM (inactive) | 28.8 µM (inactive) | 31 µM (inactive) | 16.2 µM (inactive) | – | 29.1 µM (inactive) | 96.6 µM (inactive) | 34.4 µM (inactive) | 18.5 µM (inactive) | 25.8 µM (inactive) | 26.7 µM (inactive) | 19.5 µM (inactive)
Cn1cc2c(=O)n3ncn(-c4ccc(Br)cc4)c3nc2n1 | > 100 µM (inactive) | > 100 µM (inactive) | > 100 µM (inactive) | > 100 µM (inactive) | > 100 µM (inactive) | > 100 µM (inactive) | > 100 µM (inactive) | > 100 µM (inactive) | 87.9 µM (inactive) | > 100 µM (inactive) | > 100 µM (inactive) | > 100 µM (inactive) | > 100 µM (inactive) | > 100 µM (inactive) | > 100 µM (inactive) | > 100 µM (inactive) | – | > 100 µM (inactive) | > 100 µM (inactive) | –
CCOP(=O)(OCC)/C(=C/NC(=S)c1ccncc1)C(=O)OC | > 100 µM (inactive) | > 100 µM (inactive) | > 100 µM (inactive) | > 100 µM (inactive) | > 100 µM (inactive) | 4.48 µM (inactive) | > 100 µM (inactive) | > 100 µM (inactive) | > 100 µM (inactive) | > 100 µM (inactive) | > 100 µM (inactive) | > 100 µM (inactive) | > 100 µM (inactive) | – | > 100 µM (inactive) | > 100 µM (inactive) | > 100 µM (inactive) | 20.6 µM (inactive) | 53.5 µM (inactive) | > 100 µM (inactive)
COc1cc(C2C(Cl)C(=O)N2c2ccc(Br)cc2)cc(I)c1O (stereo unspecified) | 23.8 µM (inactive) | 45.1 µM (inactive) | 27.5 µM (inactive) | 35.4 µM (inactive) | > 100 µM (inactive) | 29.2 µM (inactive) | 52.8 µM (inactive) | 42.4 µM (inactive) | 43.2 µM (inactive) | 59.6 µM (inactive) | 7.21 µM (inactive) | 68.5 µM (inactive) | 25.5 µM (inactive) | – | 58.3 µM (inactive) | 33.5 µM (inactive) | 37.4 µM (inactive) | 26.4 µM (inactive) | 34 µM (inactive) | 6.04 µM (inactive)
CCCCCCCC(=O)NC(C)(C)C(=O)NCC(=O)NC(CC(C)C)C(=O)NC(C)(C)C(=O)NCC(=O)NCC(=O)NC(CC(C)C)C(=O)NC(C)(C)C(=O)NCC(=O)NC(C(=O)NC(CO)CC(C)C)C(C)CC (stereo unspecified) | 3.14 µM (inactive) | 3.59 µM (inactive) | 3.73 µM (inactive) | 4.26 µM (inactive) | 4.21 µM (inactive) | 3.99 µM (inactive) | 3.93 µM (inactive) | 4.36 µM (inactive) | 3.85 µM (inactive) | 4.42 µM (inactive) | 3.21 µM (inactive) | 4.28 µM (inactive) | 4.14 µM (inactive) | 3.72 µM (inactive) | 4.48 µM (inactive) | 4.83 µM (inactive) | 4.28 µM (inactive) | 4.26 µM (inactive) | – | 3.53 µM (inactive)
COc1cc2c(cc1O)-c1c(OC)c(O)cc3c1C(C2)N(C)CC3 (stereo unspecified) | > 100 µM (inactive) | > 100 µM (inactive) | > 100 µM (inactive) | > 100 µM (inactive) | > 100 µM (inactive) | > 100 µM (inactive) | > 100 µM (inactive) | > 100 µM (inactive) | > 100 µM (inactive) | > 100 µM (inactive) | – | > 100 µM (inactive) | > 100 µM (inactive) | – | > 100 µM (inactive) | > 100 µM (inactive) | – | > 100 µM (inactive) | > 100 µM (inactive) | > 100 µM (inactive)
CC(=O)Oc1ccc(/C=C/C(=O)O[C@H]2CCCC[C@@H]2OC(=O)/C=C/c2ccc(OC(C)=O)c(OC(C)=O)c2)cc1OC(C)=O | 11.5 µM (inactive) | 13.2 µM (inactive) | 2.64 µM (inactive) | 4.37 µM (inactive) | 8.61 µM (inactive) | 4.34 µM (inactive) | 8.75 µM (inactive) | 6.87 µM (inactive) | 4.69 µM (inactive) | 6.21 µM (inactive) | 5.75 µM (inactive) | 9.23 µM (inactive) | 4.84 µM (inactive) | 12.8 µM (inactive) | 3.85 µM (inactive) | 19.2 µM (inactive) | 7.38 µM (inactive) | 2.75 µM (inactive) | – | 2.49 µM (inactive)
COc1cc2cc(C(=O)N3CC(COS(C)(=O)=O)c4c3cc(N)c3ccccc43)[nH]c2c(OC)c1OC (stereo unspecified) | 0.0385 µM (active) | 0.0187 µM (active) | 0.0149 µM (active) | 0.0195 µM (active) | 0.0136 µM (active) | < 0.01 µM (active) | < 0.0179 µM (active) | 0.0146 µM (active) | < 0.01 µM (active) | 0.252 µM (active) | – | 0.0221 µM (active) | 0.0146 µM (active) | 0.0266 µM (active) | < 0.01 µM (active) | 0.0123 µM (active) | 0.0191 µM (active) | 0.0128 µM (active) | < 0.01 µM (active) | 0.0172 µM (active)
COC(=O)NCCc1n[nH]c2c1C(=O)C=C(Nc1ccccc1)C2=O | 30.1 µM (inactive) | 23.4 µM (inactive) | 19.7 µM (inactive) | 30.3 µM (inactive) | 17.9 µM (inactive) | 10.9 µM (inactive) | 15.1 µM (inactive) | 36.7 µM (inactive) | 17.9 µM (inactive) | 36.7 µM (inactive) | 28.2 µM (inactive) | 34.8 µM (inactive) | 17.3 µM (inactive) | – | 32.4 µM (inactive) | 28.5 µM (inactive) | 68.2 µM (inactive) | 13.7 µM (inactive) | 19.2 µM (inactive) | 15.5 µM (inactive)
